Ends that are not written are not given here.
How the values were obtained:
Format in all cases: cell-based, human
[1] = system: CD3+CD8+ T cells from HIV+ subjects; test: CFSE-proliferation, CD3+CD8+ T cells from HIV+ subjects; conditions: positive responses over total tested; F3 responders (H3 responders for H3-3)
Procedure: 2×10^5-5×10^5 CFSE labeled PBMCs were incubated with 15-20 μg of peptides in 600 μL of RPMI media with 10% FBS for 5 days at 37° C. (5% CO2). After harvesting, they were labeled with allophycocyanin (APC), APC-H7, and Pacific Blue labeled monoclonal antibodies (MAb) to human CD3, CD4, and CD8, respectively and analyzed for T-cell proliferation by flow cytometry using BD LSRII (BD Biosciences). The proliferating CD4^+ or CD8^+ T cell populations were defined from the CD3^+ cell population as either CD3^+CD8^+ or CD3^+CD4^+T cells (mutually exclusive) with low CFSE (CFSE^low) staining.
Flow cytometry (FACS) for carboxyfluoresein diacetate succinimide ester (CFSE)-proliferation and intracellular cytotoxin staining (ICS). The CFSE-proliferation analysis was performed on PBMC according to the manufacturer's protocol (Invitrogen, Carlsbad, Calif.) and processed as previously described (Lichterfeld et al. (2004)). Modifications consisted of using 2.0-5.0×10^5 CFSE-labeled cells stimulated for 5 days (37° C., 5% CO^2) with 30 μg/well of total peptides in a pool (15 μg/well for individual peptide, Table 10) or 5 μg/mL PHA in AIM V medium containing 25 μg/mL of gentamycin and 10% heat-inactivated human serum. Subsequently these cells were harvested and labeled with the LIVE/DEAD fixable yellow dye (Invitrogen) and then treated 5 min with anti-CD16/CD32 antibody (Biolegend, San Diego, Calif.) for blocking non-specific binding before phenotype-specific antibodies. The following antibodies were used for the CFSE-proliferation analysis: anti-CD4 APC, anti-CD3 APC-H7, and anti-CD8 Pacific Blue (BD Biosciences, San Jose, Calif.).
(§1) In both analyses, 1.0-2.0×10^4 cells were fixed in phosphate-buffered saline (PBS) containing 2% paraformaldehyde and analyzed on BD LSRII using […] Software (BD Biosciences), with a positive threshold of 3% CFSE^low for CFSE-proliferation and 1% T cells expressing cytotoxin for ICS. The final value for each subject was derived after subtraction of the subject's medium control and the average value of peptide-stimulated cells from uninfected control subjects.
(§2) Flow cytometry (FACS) for measuring CFSE-proliferation and intracellular cytokine staining (ICS). Carboxyfluorescein diacetate succinimide ester (CFSE)-proliferation analysis was performed according to the manufacturer's protocol (Invitrogen) and processed as previously described (Lichterfeld et al. 2004) using the following modification: 2.5-5.0×10^5 CFSE-labeled PBMC stimulated for 4-5 days (37° C., 5% CO2) with 15-30 μg of peptides in culture media (AIM V medium, 25 μg/mL gentamycin, and 10% heat-inactivated fetal bovine serum). The ICS analysis was performed as previously described (Horton et al. 2007; Pattacini et al. 2012).
(§3) The antibodies used for the proliferation analysis consisted of anti-CD4 allophycocyanin (APC) anti-CD3 APC-H7, and anti-CD8 Pacific Blue, and those for ICS were anti-CD3 APC-H7, anti-CD4 BD Horizon V450, anti-CD8 FITC, anti-granzyme B (GrzB) Alexa 700, anti-granzyme A (GrzA) PE (BD Biosciences, Cat #555349, 560176, 558207, 560345, 555366, 560213, 558904), and anti-perforin PerCP (Abcam, Cat #ab86319). Both analyses were performed with BD LSRII and […]™ Software (BD Biosciences), using a positive threshold of >1% CFSE^low for CFSE-proliferation except for ICS studies with threshold of >0.1% T cells expressing cytotoxin. The final value for each subject was derived after subtracting the result of each HIV^+ subject with the media control followed by subtraction with the average response of the media-control subtracted HIV^− subjects.

PBMC from HIV+ subjects = test: IFNγ ELISpot, PBMC from HIV+ subjects; conditions: for IFNγ (positive/total): positive responses over total tested, F3 responders (H3 responders for H3-3)
Procedure: 1.0×10^5-2.0×10^5 PBMCs were stimulated with peptides (15 μg peptide/well) in ELISpot plates for 18 hours in AIMS V medium (at 10% normal human serum). The spots were counted with an ELISpot reader and adjusted to spot forming units (SFU) per 10^6 cells.
Positive reactivity was defined at ≥70 SFU/10^6 cells after subtracting the background derived from non-specific peptide control or media control, and the average of 3 HIV-1 negative controls (<30 SFU/10^6 cells).
ELISpot assays. Enzyme-linked immunosorbent spot assays (ELISpot) for IFNγ (R&D Systems, Minneapolis, Minn.) were performed with AIM V medium containing 5% heat-inactivated (56° C., 30 min) human serum as previously described (Abbott et al. (2012)). The PBMC from HIV+ subjects were stimulated with either peptide pool (4-5 consecutive peptides per pool at 5 μg per peptide) or individual peptide (15 μg/well). The peptides were 11-16 aa in length with 8-10 aa overlap. The results were analyzed with an ELISpot reader (MVS Pacific LLC, Minneapolis, Minn.) and adjusted to spot forming units (SFU) per 10^6 cells, after subtraction of the average medium control for each subject. The PBMC from HIV+ subjects were stimulated with T-cell mitogen, phytohemaglutinin A (PHA, 5 μg/mL), as positive control. At a positive threshold of 70 SFU, HIV− subjects had no substantial IFNγ responses (>50 SFU) to HIV and FIV peptide pools.
ELISpot assays. Human enzyme-linked immunosorbent spot assays (ELISpot) (R&D Systems, Cat #XEL285) which measure IFNγ production were performed (Abbott et al. 2011). The positive threshold for human IFNγ responses was >50 spot forming units (SFU)/10^6 cells. The final value for each subject was derived after subtracting the result of each HIV^+ subject with the media control followed by subtraction with the average response of the HIV^− subjects which was rarely more than 10 SFU.

[2] = system: CD4+ or CD8+ T cells from HIV+ subjects; test: Intracellular cytotoxin staining (ICS), CD4+ or CD8+ T cells from HIV+ responders; conditions: responders to Fp9 or Fp14 peptide pools
Procedure: Briefly, 1×10^6PBMCs (freshly isolated) are stimulated with 20 μg of peptides for 6 hours in a total volume of 200 μL in a 96-well plate in presence of Golgi transport inhibitor (37° C., 5% CO2). […] Cells were stained with the LIVE/DEAD® fixable yellow dye (Invitrogen, Eugene, Oreg.). […] The flow cytometry data is collected using BD LSRII and analyzed with the FACS DIVA software.
The cells were subsequently fixed and permeabilized with Cytofix/Cytoperm solution (BD Biosciences) before reaction with anti-cytotoxin antibodies. The antibodies consisted of anti-CD3 APC-H7, anti-CD4 BD Horizon V450, and anti-CD8 FITC followed by anti-GrzB Alexa 700 and anti-GrzA PE (all from BD Biosciences), and anti-perforin PerCP (Abcam, Boston, Mass.).
as §1
Flow cytometry (FACS) for measuring CFSE-proliferation and intracellular cytokine staining (ICS).
Both analyses were performed with BD LSRII and […]™ Software (BD Biosciences), using a positive threshold of >1% CFSE^low for CFSE-proliferation except for ICS studies with threshold of >0.1% T cells expressing cytotoxin.

[3] = system: CD4+ T cells from HIV+ subjects; test: Intracellular cytotoxin staining (ICS), CD4+ T cells from HIV+ subjects; set-up: key to CD4^+ T-cell cytotoxins (4C): positive (+); negative (−) response; inhibitory (↓); not done (n); conditions: HIV^+ subjects compared to HIV^− control group
Procedure: (§4) Briefly, 1×10^6PBMCs (freshly isolated) are stimulated with 20 μg of peptides for 6 hours in a total volume of 200 μL in a 96-well plate in presence of Golgi transport inhibitor (37° C., 5% CO2). The cells are processed as previously described (Horton et al. (2007)). Cells were stained with the LIVE/DEAD® fixable yellow dye (Invitrogen, Eugene, Oreg.). The monoclonal antibodies fluorochome-conjugated to human cytokines used are: APC-H7 to CD3 (clone SK7); BD Horizon V450 to CD4 (clone RPA-T4); Qdot to CD8 (clone 3B5); PE-cy7 to IFN-γ (clone 4S.B3); APC to IL-2 (clone MQ1-17H12) PerCP to perforin (clone B-D48); Alexa F1.700 to granzyme-B (clone GB11) and PE to granzyme-A (clone CB9). The flow cytometry data is collected using BD LSRII and analyzed with the FACS DIVA software.
(§5) The ICS analysis (Horton et al. (2007)) involved stimulating 0.5-1.0×10^6 freshly isolated PBMC for 6 h with the same peptide stimulant and culture conditions as the proliferation analysis in the presence of 1 μg/mL of Golgi transport inhibitor and monensin followed by labeling with LIVE/DEAD fixable yellow dye and then treatment with anti-CD16/CD32 antibody and T-cell phenotypic antibodies. The cells were subsequently fixed and permeabilized with Cytofix/Cytoperm solution (BD Biosciences) before reaction with anti-cytotoxin antibodies. The antibodies consisted of anti-CD3 APC-H7, anti-CD4 BD Horizon V450, and anti-CD8 FITC followed by anti-GrzB Alexa 700 and anti-GrzA PE (all from BD Biosciences), and anti-perforin PerCP (Abcam, Boston, Mass.).
as §1, §2, §3

[4] = system: CD8+ T cells from HIV+ subjects; test: Intracellular cytotoxin staining (ICS: perforin, GrzA, GrzB, CD107a), CD8+ T cells from HIV+ subjects; set-up: key to CD8^+ T-cell cytotoxins (8C): positive (+); negative (−) response; inhibitory (↓); not done (n); conditions: HIV^+ subjects compared to HIV^− control group
Procedure: as §4, §5, §1, §2, §3

With FIV F3-3m2 (KKKDSGKWRMLIDFRV) the “CD8^+ T Proliferation (positive/total)” value [1] was 2/5 and the “IFNγ (positive/total)” value (PBMC from HIV+ subjects) was 7/9.
In the case of FIV F3-3 (KKKSGKWRMLIDFRV), the “CD8^+ T Proliferation (positive/total)” value [1] is reported as 6/9 and the “IFNγ (positive/total)” value (PBMC from HIV+ subjects) is reported as 13/13.
FIV 3-3 (KR9) (KWRMLIDFR) was tested, and the “CD8^+ T Proliferation (positive/total)” value [1] was 0/6 and the “IFNγ (positive/total)” value (PBMC from HIV+ subjects) was 1/9.
For FIV F3-3 (KV15) (KKKSGKWRMLIDFRV), the “CD8^+ T Proliferation (positive/total)” value [1] was 6/9 and the “IFNγ (positive/total)” value (PBMC from HIV+ subjects) was 13/13.
In the case of FIV F3-3m5 (KKKSGKWRKLIDFRV), the “CD8^+ T Proliferation (positive/total)” value [1] is reported as 0/5 and the “IFNγ (positive/total)” value (PBMC from HIV+ subjects) is reported as 0/9.
DQEQNTAEVKLYLK [Fp14-1] was tested, and the Cytotoxins [2] was “High Cytototoxins (The cytotoxin result is considered high when four or five subjects express one or more cytotoxins in the CD8^+ T cells)”, the “CD4^+ T-cell cytotoxins (4C)” value [3] was “+” and the “CD8^+ T-cell cytotoxins (8C)” value [4] was “+”.
For FIV F3-3m6 (KKKSTKWRMLIDFRV), the “CD8^+ T Proliferation (positive/total)” value [1] was 2/5 and the “IFNγ (positive/total)” value (PBMC from HIV+ subjects) was 7/9.
In the case of KKKDSTKWRKLVDFR [H3-3], the “IFNγ response of H3 responders retested” value (PBMC from HIV+ subjects; three H3 responders tested on or after the second year) is reported as 0/3.
For FIV F3-3m3 (KKKSGKWRMLVDFRV), the “CD8^+ T Proliferation (positive/total)” value [1] was 0/5 and the “IFNγ (positive/total)” value (PBMC from HIV+ subjects) was 0/9.
